From US20220073532A1, “INHIBITORS OF CGAS ACTIVITY AS THERAPEUTIC AGENTS” (BELLBROOK LABS, LLC, priority 2019, published 2022)
pIC50: −log10 of the molar value. Where two headings read alike, the source gives them in different places.

Molecular target: cGAS (Homo sapiens, UniProt Q8N884)
Assay: cGAS enzymatic assay (FP/TR-FRET detection of cGAMP)
Type: biochemical
Set-up: The cGAS assay was used to screen 100,000 compounds with full-length human cGAS; 6xHis; made in house
Details: cGAS (30 nM)
Description: Some exemplary compounds of the disclosure were tested for inhibition of cGAS (30 nM). The results are provided in Table 1 where “A” indicates an IC50 of less than 100 nM, “B” indicates an IC50 of greater than 100 nM and less than 500 nM, “C” indicates an IC50 of greater than 500 nM and less than 1 μM, “D” indicates an IC50 of greater than 1 μM and less than 10 μM, and “E” indicates an IC50 of greater than 10 μM.
A homogenous cGAS enzymatic assay was developed with fluorescence polarization (FP) and time-resolved Forster resonance energy transfer (TR-FRET) readouts (FIG. 2A-2D). The cGAS assay was used to screen 100,000 compounds with full-length human cGAS (FIG. 2E), resulting in the identification of the novel chemotype of the disclosure, two of which are further developed in a structure-driven hit-to-lead study (Table 3, below). The assay performance was robust, as indicated by respective Z and Z′ values of 0.59 and 0.63 in the screen; compounds with polarization values greater than three SDs from the mean were considered hits; a scatterplot from 10 plates (3,200 compounds) is shown in FIG. 2D.
Biochemical and biophysical analysis: Potency and MOA studies, including Mn^2+ sensitivity, are performed using the cGAS enzymatic assay. Dose response experiments are used to determine IC50 values under basal conditions (5 mM MgCl2, 100 μM ATP/GTP), and with the addition of physiological levels of Mn (0.2 mM) using human and mouse cGAS. Ligand optimization is driven by potency with the human enzyme; potency with mouse cGAS informs selection of an appropriate disease model for efficacy studies. Competition with ATP and GTP is assessed by comparing basal IC50 values to those in the presence of saturating ATP or GTP, and subsequently confirmed by measuring velocity vs. substrate at varying ATP or GTP levels. Inhibitor residence times (1/koff) are used as a key parameter for prioritizing compounds and driving SAR, because a longer residence time often results from an allosteric mechanism, and can also correlate with improved cellular activity. The cGAS enzymatic assay is used with the jump dilution method to measure residence times (inhibitor dissociation rates), as described for kinases using the very similar ADP assay. Biophysical methods, including SPR and TSA, are used as orthologous methods for residence time measurements and kd estimates.

[1] = with Mn^2+, read-out: Inhibition cGAS + Mn^2+

Sequence of cGAS (Q8N884 whole entry): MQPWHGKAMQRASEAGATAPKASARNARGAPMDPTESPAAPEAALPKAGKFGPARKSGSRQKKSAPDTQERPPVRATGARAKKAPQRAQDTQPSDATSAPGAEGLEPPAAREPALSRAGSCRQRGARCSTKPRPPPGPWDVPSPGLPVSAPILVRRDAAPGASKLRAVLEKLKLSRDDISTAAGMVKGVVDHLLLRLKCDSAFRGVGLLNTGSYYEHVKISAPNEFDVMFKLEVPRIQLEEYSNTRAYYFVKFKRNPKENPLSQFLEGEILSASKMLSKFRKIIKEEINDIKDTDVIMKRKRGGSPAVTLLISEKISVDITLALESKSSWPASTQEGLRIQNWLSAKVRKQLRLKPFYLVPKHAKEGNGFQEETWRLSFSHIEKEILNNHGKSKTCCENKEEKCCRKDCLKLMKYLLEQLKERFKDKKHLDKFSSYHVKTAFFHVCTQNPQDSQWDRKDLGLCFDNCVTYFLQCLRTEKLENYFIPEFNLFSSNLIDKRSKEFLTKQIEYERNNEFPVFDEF

Compound | pIC50 [1] | pIC50 (read-out: Inhibition cGAS) | Inhibition cGAS
Cc1nc(N2C[C@@H](Nc3n[nH]cc3-c3ccccc3)CC2C(=O)O)c2oc3cc(F)ccc3c2n1 (stereo in doubt) [Compound 56, (2R,4S)-1-(7-fluoro-2-methylbenzofuro[3,2-d]pyrimidin-4-yl)-4-((4-phenyl-1H-pyrazol-3-yl)amino)pyrrolidine-2-carboxylic acid] | 5.00 to 6.00 | 6.00 to 6.30 | –
Cc1nc(NCC(=O)O)c2oc3ccccc3c2n1 [Compound 2, (2-methylbenzofuro[3,2-d]pyrimidin-4-yl)glycine] | < 5.00 | 5.00 to 6.00 | –
C[C@H](Nc1nc(-c2ccccc2)nc2c1oc1ccccc12)C(=O)O [Compound 3, (2-phenylbenzofuro[3,2-d]pyrimidin-4-yl)-L-alanine] | < 5.00 | 5.00 to 6.00 | –
O=C(O)[C@@H]1CCCN1c1ncnc2c1oc1ccccc12 [Compound 4, benzofuro[3,2-d]pyrimidin-4-yl-L-proline] | < 5.00 | 5.00 to 6.00 | –
O=C(O)CNc1nc(-c2ccccc2)nc2c1oc1ccccc12 [Compound 5, (2-phenylbenzofuro[3,2-d]pyrimidin-4-yl)glycine] | < 5.00 | 5.00 to 6.00 | –
O=C(O)C1CCCN(c2ncnc3c2oc2ccccc23)C1 (stereo not shown) [Compound 6, 1-(benzofuro[3,2-d]pyrimidin-4-yl)piperidine-3-carboxylic acid] | < 5.00 | < 5.00 | –
CCc1nc(N2CCC[C@H]2C(=O)O)c2oc3ccccc3c2n1 [Compound 7, (2-ethylbenzofuro[3,2-d]pyrimidin-4-yl)-L-proline] | 5.00 to 6.00 | 5.00 to 6.00 | –
O=C(O)[C@@H]1CCCN1c1nc(C2CC2)nc2c1oc1ccccc12 [Compound 8, (2-cyclopropylbenzofuro[3,2-d]pyrimidin-4-yl)-L-proline] | < 5.00 | 5.00 to 6.00 | –
CC(C)c1nc(N2CCC[C@H]2C(=O)O)c2oc3ccccc3c2n1 [Compound 9, (2-isopropylbenzofuro[3,2-d]pyrimidin-4-yl)-L-proline] | < 5.00 | 5.00 to 6.00 | –
O=C(O)[C@@H]1CCCN1c1nc(C2CCCCC2)nc2c1oc1ccccc12 [Compound 10, (2-cyclohexylbenzofuro[3,2-d]pyrimidin-4-yl)-L-proline] | < 5.00 | < 5.00 | –
O=C(O)[C@@H]1CCCN1c1nc(C2CCC2)nc2c1oc1ccccc12 [Compound 11, (2-cyclobutylbenzofuro[3,2-d]pyrimidin-4-yl)-L-proline] | < 5.00 | 5.00 to 6.00 | –
O=C(O)[C@@H]1CCCN1c1nc(C2CCCC2)nc2c1oc1ccccc12 [Compound 12, (2-cyclopentylbenzofuro[3,2-d]pyrimidin-4-yl)-L-proline] | < 5.00 | < 5.00 | –
O=C(O)[C@@H]1CCCN1c1nc(-c2ccccc2)nc2c1oc1ccccc12 [Compound 13, (2-phenylbenzofuro[3,2-d]pyrimidin-4-yl)-L-proline] | < 5.00 | < 5.00 | –
CCc1nc(N2CCC[C@H]2C(=O)NS(=O)(=O)N(C)C)c2oc3ccccc3c2n1 [Compound 14, (S)-N-(N,N-dimethylsulfamoyl)-1-(2-ethylbenzofuro[3,2-d]pyrimidin-4-yl)pyrrolidine-2-carboxamide] | < 5.00 | < 5.00 | –
CCc1nc(N(C)CC(=O)O)c2oc3ccccc3c2n1 [Compound 16, N-(2-ethylbenzofuro[3,2-d]pyrimidin-4-yl)-N-methylglycine] | 5.00 to 6.00 | 5.00 to 6.00 | –
CCc1nc(N(C)[C@@H](C)C(=O)O)c2oc3ccccc3c2n1 [Compound 17, N-(2-ethylbenzofuro[3,2-d]pyrimidin-4-yl)-N-methyl-L-alanine] | < 5.00 | 5.00 to 6.00 | –
O=C(O)[C@@H]1CCCN1c1nc(-c2ccncc2)nc2c1oc1ccccc12 [Compound 18, (2-(pyridin-4-yl)benzofuro[3,2-d]pyrimidin-4-yl)-L-proline] | < 5.00 | < 5.00 | –
CCc1nc(N2CC[C@H]2C(=O)O)c2oc3ccccc3c2n1 [Compound 19, (S)-1-(2-ethylbenzofuro[3,2-d]pyrimidin-4-yl)azetidine-2-carboxylic acid] | 5.00 to 6.00 | 5.00 to 6.00 | –
COc1nc(N2CCC[C@H]2C(=O)O)c2oc3ccccc3c2n1 [Compound 20, (2-methoxybenzofuro[3,2-d]pyrimidin-4-yl)-L-proline] | 5.00 to 6.00 | 6.00 to 6.30 | –
C[C@H]1C[C@@H](C(=O)O)N(c2nc(-c3ccccc3)nc3c2oc2ccccc23)C1 [Compound 21, (2S,4S)-4-methyl-1-(2-phenylbenzofuro[3,2-d]pyrimidin-4-yl)pyrrolidine-2-carboxylic acid] | < 5.00 | 5.00 to 6.00 | –
N#Cc1nc(N2CCC[C@H]2C(=O)O)c2oc3ccccc3c2n1 [Compound 22, (2-cyanobenzofuro[3,2-d]pyrimidin-4-yl)-L-proline] | 5.00 to 6.00 | 5.00 to 6.00 | –
CO[C@H]1C[C@@H](C(=O)O)N(c2nc(C)nc3c2oc2ccccc23)C1 [Compound 23, (2S,4S)-4-methoxy-1-(2-methylbenzofuro[3,2-d]pyrimidin-4-yl)pyrrolidine-2-carboxylic acid] | < 5.00 | 5.00 to 6.00 | –
Cc1nc(N[C@@H](CCC(=O)O)C(=O)O)c2oc3ccccc3c2n1 [Compound 24, (2-methylbenzofuro[3,2-d]pyrimidin-4-yl)glutamic acid] | < 5.00 | 5.00 to 6.00 | –
Cc1nc(N2C[C@@H](Cc3nn[nH]n3)C[C@H]2C(=O)O)c2oc3ccccc3c2n1 [Compound 25, (2S,4R)-4-((1H-tetrazol-5-yl)methyl)-1-(2-methylbenzofuro[3,2-d]pyrimidin-4-yl)pyrrolidine-2-carboxylic acid] | – | > 7.00 | –
Cc1nc(N2C[C@@H](Nc3cc[nH]n3)C[C@H]2C(=O)O)c2oc3ccccc3c2n1 [Compound 26, (2S,4S)-4-((1H-pyrazol-3-yl)amino)-1-(2-methylbenzofuro[3,2-d]pyrimidin-4-yl)pyrrolidine-2-carboxylic acid] | – | 6.30 to 7.00 | –
Cc1nc(N2C[C@@H](Nc3n[nH]cc3C)C[C@H]2C(=O)O)c2oc3ccccc3c2n1 [Compound 27, (2S,4S)-4-((4-methyl-1H-pyrazol-3-yl)amino)-1-(2-methylbenzofuro[3,2-d]pyrimidin-4-yl)pyrrolidine-2-carboxylic acid] | – | 6.30 to 7.00 | –
Cc1nc(N2C[C@@H](NC(=O)C(C)(C)c3ccncc3)C[C@H]2C(=O)O)c2oc3ccccc3c2n1 [Compound 29, (2S,4S)-4-(2-methyl-2-(pyridin-4-yl)propanamido)-1-(2-methylbenzofuro[3,2-d]pyrimidin-4-yl)pyrrolidine-2-carboxylic acid] | – | 6.30 to 7.00 | –
Cc1nc(N2C[C@@H](NC(=O)Cc3cc[nH]n3)C[C@H]2C(=O)O)c2oc3ccccc3c2n1 [Compound 31, (2S,4S)-4-(2-(1H-pyrazol-3-yl)acetamido)-1-(2-methylbenzofuro[3,2-d]pyrimidin-4-yl)pyrrolidine-2-carboxylic acid] | – | – | B, D
Cc1nc(N2C[C@@H](NC(=O)Cc3cn[nH]c3)C[C@H]2C(=O)O)c2oc3ccccc3c2n1 [Compound 32, (2S,4S)-4-(2-(1H-pyrazol-4-yl)acetamido)-1-(2-methylbenzofuro[3,2-d]pyrimidin-4-yl)pyrrolidine-2-carboxylic acid] | – | 6.00 to 6.30 | –
